# Results as given in patent publication US12187739B2, “Diaryl macrocycle polymorph” (TURNING POINT THERAPEUTICS, INC., priority 2015, dated 2025).
# Legend:
# [1] = test system: KM 12 cells (harboring endogenous TPM3-TRKA fusion gene); assay: cells; settings: Homo sapiens, KM12, 72 h, read-out: KM 12 cell prolif. IC50 (nM)
# Description: Colorectal cell lines KM 12 (harboring endogenous TPM3-TRKA fusion gene) cells were cultured in DMEM medium, supplemented with 10% fetal bovine serum and 100 U/mL of penicillin/streptomycin. 5000 cells were seeded in 384 well white plate for 24 hours before compounds treatment. Cell proliferation was measured using CellTiter-Glo luciferase-based ATP detection assay (Promega) following the manufactures's protocol after 72 hours incubation. IC50 determinations were performed using GraphPad Prism software (GraphPad, Inc., San Diego, CA).
# 5000 cells were seeded in 384 well white plate for 24 hours before compounds treatment. Cell proliferation was measured using CellTiter-Glo luciferase-based ATP detection assay (Promega) following the manufactures's protocol after 72 hours incubation. IC50 determinations were performed using GraphPad Prism software (GraphPad, Inc., San Diego, CA).
# [2] = test system: SET-2 cells (harboring endogenous JAK2 V618F point mutation); assay: SET-2 cell proliferation assay (CellTiter-Glo); assay type: cell-based; settings: Homo sapiens, SET-2 essential thrombocythemia cells, 72 hours incubation, read-out: SET2 cell proli. IC50
# Description: Essential thrombocythemia cell line SET-2 cells (harboring endogenous JAK2 V618F point mutation) or T cell lymphoma Karpas-299 cell line (harboring endogenous NPM-ALK fusion gene) were cultured in RPMI medium, supplemented with 10% fetal bovine serum and 100 U/mL of penicillin/streptomycin. 5000 cells were seeded in 384 well white plate for 24 hours before compounds treatment. Cell proliferation was measured using CellTiter-Glo luciferase-based ATP detection assay (Promega) following the manufactures's protocol after 72 hours incubation. IC50 determinations were performed using GraphPad Prism software (GraphPad, Inc., San Diego, CA).
# [3] = test system: Ba/F3-EML4-ALK wild type cell line; assay: EML4-ALK Ba/F3 stable cell line proliferation assay (CellTiter-Glo); assay type: cell-based; settings: Ba/F3 cells with EML4-ALK wild-type (variant 1), 48 hours incubation; read-out: EML4-ALK Ba/F3 cell proli. IC50
# Description: The EML4-ALK wild-type gene (variant 1) was synthesized at GenScript and cloned into pCDH-CMV-MCS-EF1-Puro plasmid (System Biosciences, Inc). Ba/F3-EML4-ALK wild type cell line was generated by infecting Ba/F3 cells with lentivirus containing EML4-ALK wide-type. Stable cell lines were selected by puromycin treatment, followed by IL-3 withdrawal. 5000 cells were seeded in 384 well white plate overnight before compound treatment.
smiles,measurement,setting,value
"C[C@H]1CNC(=O)c2cnn3ccc(nc23)N[C@H](C)c2cc(F)ccc2O1 [Compound I, (7S,13R)-11-fluoro-7,13-dimethyl-6,7,13,14-tetrahydro-1,15-ethenopyrazolo[4,3-f][1,4,8,10]benzoxatriazacyclotridecin-4(5H)-one]",IC50,[1],0.5 nM
same,IC50,[2],0.242 µM
same,IC50,[3],0.0211 µM
